Results reported in ChEMBL document CHEMBL1132534, “Predicting relative binding free energies of tacrine-huperzine A hybrids as inhibitors of acetylcholinesterase” (J Med Chem, 1999).

Biological target: Acetylcholinesterase (Homo sapiens) (UniProt P22303)
Assay: Inhibitory activity against acetylcholinesterase compared to the IC50 of (-)-9M-HTH

Acetylcholinesterase (Homo sapiens), sequence (P22303 whole entry): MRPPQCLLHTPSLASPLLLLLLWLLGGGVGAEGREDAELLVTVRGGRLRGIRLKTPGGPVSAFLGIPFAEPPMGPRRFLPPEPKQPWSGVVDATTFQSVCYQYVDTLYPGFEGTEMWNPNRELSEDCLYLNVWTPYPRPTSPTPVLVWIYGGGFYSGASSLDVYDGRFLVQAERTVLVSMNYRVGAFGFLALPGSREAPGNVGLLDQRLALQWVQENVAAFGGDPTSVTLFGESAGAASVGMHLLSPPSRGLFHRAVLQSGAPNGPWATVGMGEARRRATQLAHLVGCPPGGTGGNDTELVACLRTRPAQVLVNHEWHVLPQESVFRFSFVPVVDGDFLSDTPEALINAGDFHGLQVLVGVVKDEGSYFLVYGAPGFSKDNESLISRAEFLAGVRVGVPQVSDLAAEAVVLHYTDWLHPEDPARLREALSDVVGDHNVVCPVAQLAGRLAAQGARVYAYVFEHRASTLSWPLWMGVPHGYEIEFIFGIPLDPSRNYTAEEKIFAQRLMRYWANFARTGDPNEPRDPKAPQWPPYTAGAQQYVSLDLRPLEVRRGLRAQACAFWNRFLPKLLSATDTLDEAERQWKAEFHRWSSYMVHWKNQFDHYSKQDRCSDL

Q: For `CC1=C[C@@H]2Cc3nc4cc(F)ccc4c(N)c3[C@H](C1)C2`, which Fold IC50 is on record?
A: Its Fold IC50 is 15.
